Like-named read-outs stand apart in the source and are kept apart here.

From US10323012B2 (priority 2012, dated 2019) come the findings set out here.

Data set [1] in a line: Toxicity of 4α-(N-phenyl)miliusate in mice. It counts as in vivo, BALB/c nude mice. From the text:
All animal studies are approved and performed according to Animal Care and Use Guidelines of the Animal Ethics Committee at Hong Kong Baptist University and performed following Animal Care and Use guidelines set by NIH (National Institute of Health, USA). BALB/c nude mice, SPF class, male or female, 7-8 weeks old (average body weight 22 g), are purchased from Charles River Laboratories. Before the experiment, the mice are kept for one week of acclimatization to SPF class laboratory conditions. […] Every other day injections at i.p. sites are scheduled for 21 days. Weights of mice are measured twice a week until the end of the experiment.

The subject of data set [2] is HIV/VSV-G virions. To be noted: read-out: Anti-HIV Activity (EC50).
For data set [3], the system named is HIV/VSV-G virions. In words: microbe, parasite or virus in culture. To be noted: Human immunodeficiency virus 1, A549, in Homo sapiens, 48 h, read-out: Anti-HIV Activity (EC50).
In data set [4] the test system is HIV/VSV-G virions. Briefly: in vitro. To be noted: human.
Data set [5] has as its system HIV/HA virions (H5N1 HA and NA). Briefly: microbe, parasite or virus in culture. To be noted: Human immunodeficiency virus 1, H5N1, A549, in Homo sapiens, 48 h, read-out: Anti-H5N1 Activity (EC50).
For data set [6] the test system is unchanged. In words: in vitro. The conditions noted are these: human, Selective Index (CC50/IC50), anti-H5N1.
For data set [7] the test system is unchanged. To be noted: human.
The mark [8] stands for this setting: 20 and 40 mg/kg i.p., every other day for 21 days, 10 mice/group.

As for 4α-(N-Phenyl)miliusate, in data set [1] (setting [8]), the Health of mice result was “all mice remained healthy” and the “Weight loss of mice” value was “no weight loss”. In data set [1] (doses of 40 mg/kg), the Toxicity in mice result was “no toxicity”. Besides, the EC50 in the data set on HIV/VSV-G virions [2] was 2.7 µM.
On to 8′,10′-Dihydroxy-miliusate, for which the EC50 in the data set on HIV/VSV-G virions [2] was determined as 14.4 µM.
Consider `CC(=O)O[C@@H]1CCC(=O)C2(CC(=O)O[C@@H]2/C=C(\C)CCC=C(C)C)C1` (some centres unmarked) [3,4-Dihydro-miliusate], for which the EC50 in the data set with HIV/VSV-G virions [3] was 67 µM. Moreover, the selectivity ratio with HIV/VSV-G virions [4] turned out to be 1.
In the case of 10′-Hydroxy-8′-oxo-miliusate, the EC50 in the data set with HIV/VSV-G virions [2] worked out at 4.97 µM.
`CO[C@@H]1CC(=O)C2(CC(=O)O[C@@H]2/C=C(\C)CCC=C(C)C)C[C@@H]1O` (some centres unmarked) [Miliusane I]: in data set [5], the EC50 worked out at 0.71 µM. In addition, the selectivity ratio in data set [6] was 9.5. Further, the “Selective Index (CC50/IC50), anti-H5N1” value in data set [7] amounted to 10.
